The text below walks through data of patent publication US20090305969A1, “Skin Repair Accelerating Therapeutic Agent Containing Desacyl Ghrelin and Derivatives Thereof as Active Ingredient” (priority 2005, published 2009).

One test has as its system cultured fetal skin cell. The test is described as follows: Proliferation activity in cultured fetal skin cell (BrdU uptake, Proliferation ELISA). The format is cell-based, rat. The note with it: 24 hours incubation, BrdU 10 μM, versus control medium, FIG. 2. How it is done: The skin cells of a rat fetus were collected from a Wistar rat on the 17th day of pregnancy, and a dispersion liquid thereof was obtained in the same manner as in Example 1. The dispersed cells were suspended in a MCDB153HAA medium (F-Peptide Co., Ltd., Yamagata, Japan) containing 2% fetal bovine serum, penicillin (100 U/mL), streptomycin (100 μg/mL) and epidermal growth factor EGF (5 ng/mL), and sowed on a polyethyleneimine coated 96-hole multi-well plate in an amount of 3×10^4 cells/well. Desacyl ghrelin (0.05 to 500 μmol/mL (nM)) or desacyl ghrelin (1-15)-NH2 (SEQ ID NO: 22) (0.001 to 1 μmol/mL (nM)) and 5-bromo-2′-deoxyuridine (BrdU) (10 μM) were added thereto, which was then incubated for 24 hours. A medium containing neither desacyl ghrelin nor desacyl ghrelin (1-15)-NH2 was used as a control. After the culture was over, cells were collected, and then uptake quantity of BrdU into the fetal skin cell was measured using Proliferation ELISA Kit (Roche Diagnostic GmbH. Manheim, Germany) to consider the skin cell growth activity.
Uptake of BrdU increased when desacyl ghrelin or desacyl ghrelin (1-15)-NH2 acted on a cultured fetal skin cell.
On the technique in general: An ELISA detects its analyte on a solid surface through an enzyme-linked reagent.

In another test the test system is skin cell of rat fetus. The test is described as follows: Intracellular calcium increasing activity in single cultured skin cell of rat fetus (Fura-2 calcium imaging). It is filed as cell-based. The note with it: for cell response in calcium imaging (FIG. 1 curves): single fetal rat skin cell, ghrelin and desacyl ghrelin added to different cells, concentration not given. Here is the method:
A Wistar rat on the 17th day of pregnancy underwent laparotomy under anesthesia for fetus extraction. A small piece of skin was collected from the fetus, treated with collagenase in cold Hank's solution, digested with papain, and mechanically separated by pipetting. This gave a dispersion liquid of the fetal skin cells. A single cell was obtained from the dispersion liquid, ghrelin was added thereto, and calcium imaging was performed. For the calcium imaging, a calcium imaging device (IMACS, Hamamatsu Photonics) was used. That is, the ratio of the emission at a wavelength of 510 nm was measured when excitation was performed by 340 nm/380 nm light. Fura-2 was used as a calcium imaging agent. Desacyl ghrelin derived from a rat (SEQ ID NO: 3) was used.
In FIG. 1, I, II and III are the points at which a photograph was taken, but the photographs are omitted from the present description. […] Ghrelin and desacyl ghrelin were added to different cells, respectively.
It was shown that a receptor that responds to desacyl ghrelin existed in the skin cell of the rat fetus, and that addition of desacyl ghrelin increased intracellular calcium, inducing the activity of desacyl ghrelin.

Where no end group is shown, it is not given here. The star is where a group is joined. Octanoyl = CCCCCCCC(=O)*

On to “desacyl ghrelin (1-15)-NH2: Peptide of the N terminus to the 15th amino acid residue of desacyl ghrelin, the 15th amino acid amidated (GSSFLSPEHQKAQQR-NH2; listed as Rattus norvegicus)”, for which the “uptake of BrdU into the fetal skin cell” value in the test with cultured fetal skin cell (desacyl ghrelin (1-15)-NH2 0.001 to 1 μmol/mL (nM)) was “increased”.
On to “desacyl ghrelin: Ghrelin peptide without the acyl (octanoyl) group at the third serine; rat sequence GSSFLSPEHQKAQQRKESKKPPAKLQPR (SEQ ID NO: 3) (PEPTIDE (1)..(28) Amino acid sequence for rat endogenous peptides of growth hormone secretagogue receptor; listed as Rattus norvegicus)”, for which the intracellular calcium result in the test with skin cell of rat fetus (1×10^−6 M, skin cell of a single rat fetus, Fura-2 ratio 340 nm/380 nm, FIG. 1) was “increase of intracellular calcium was observed”. Also, in the test with skin cell of rat fetus, the “cell response in calcium imaging (FIG. 1 curves)” value is “responded”. In addition, the “uptake of BrdU into the fetal skin cell” value in the test on cultured fetal skin cell (desacyl ghrelin 0.05 to 500 μmol/mL (nM)) is recorded as “increased”.
“ghrelin: 28-residue peptide hormone, third amino acid from the N terminus acylated with fatty acid (n-octanoyl); acts on GHS-R1a (GSS(Octanoyl)FLSPEHQRVQQRKESKKPPAKLQPR; UniProt Q9UBU3 24-51, looked up) [reference compound]”: the “cell response in calcium imaging (FIG. 1 curves)” value with skin cell of rat fetus is on record as “responded”.
